Measured values published in US20240287614A1, “RECIPROCAL MICRORNA-MRNA PAIRINGS AS BIOMARKERS AND THERAPEUTIC TARGETS IN CANCER” (UNIVERSITY OF MARYLAND, EASTERN SHORE, priority 2023, published 2024).

Experiments:
[1] = system: prostate cancer (LNCaP and PC-3) and prostate cancer (RC77 T/E and MDA PCa 2b) cell lines; assay: BrdU-labeling cell proliferation assay; format: cell-based, human; conditions: PC-3, RC77 T/E and MDA PCa 2b, 48 h transfection, vs NS
Experimental: […] RC77 T/E, a primary prostate cancer cell line derived from a patient, was kindly provided by Dr. Johng Rhim at Center for Prostate Disease Research (CPDR) in Rockville, MD. LNCaP and PC-3 were served as prostate cancer cell line models, and RC77 T/E and MDA PCa 2b were served as prostate cancer cell models in the study. The cells were cultured in specific cell culture media, LNCaP was cultured in RPMI with 10% fetal bovine serum (FBS), PC-3 was cultured in DMEM with 10% FBS, MDA PCa 2b were cultured in BRFF-HPC1 with 20% FBS and RC77 T/E was cultured in Keratinocyte SFM with Human Recombinant Epidermal Growth Factor (EGF 1-53) and Bovine Pituitary Extract (BPE). Cells were maintained at 37° C. in a 5% CO2 incubator. LNCaP, PC-3 and MDA PCa 2b cells were seeded at density 3×10^4 cells/well in 6-well plates. RC77 T/E cells were seeded at density 5×10^4 cells/well in 6-well plates. […]
LNCaP, PC-3, RC77 T/E and MDA PCa 2b cells were seeded at density 3×10^4 cells/well in 6-well culture plates. […] 100 μL of stop solution was used to stop further reaction and followed by checking absorbance at dual wavelengths of 450 nm and 540 nm using Multiskan FC microplate photometer (Thermo Scientific).

[2] = system: mTOR and pmTOR; assay: Western blot of mTOR and pmTOR in cytoplasmic and nuclear fractions of colon, breast and lung cancer cells; format: cell-based, human; conditions: breast, lung cancer cells
Text: The human cell lines used in the study included: 22Rv1, LNCaP, PC-3, RC77 T/E and MDA PCa 2b (prostate cancer cell lines), MDA MB 231 and MCF-7 (breast cancer cell lines), HT-29 and SW620 (colon cancer cell lines), A549 and H1299 (lung cancer cell lines). RWPE-1, HMEC, FHC, and BEAS-2B were used as normal control cell lines for prostate, breast, colon, and lung, respectively. Note that 22Rv1 is a castration-resistant […] prostate cancer cell line, while LNCaP and PC-3 were derived from lymph node and bone metastasis of […] prostate cancer patients, respectively. RC77 T/E was derived from a primary prostate cancer patient, and MDA PCa 2b was derived from bone metastasis of an prostate cancer patient. The cell lines described were used as in vitro cell models to evaluate the functional roles of miR-99b-5p/MTOR pairing in the […] prostate cancer, African American prostate cancer and solid tumors in general. The cells were grown in specific cell culture media described as follows: 22Rv1, LNCaP, MCF-7 and H1299 were cultured in RPMI-1640 with 10% fetal bovine serum (FBS), PC-3, A549 and FHC were cultured in DMEM with 10% FBS, RC77 T/E was cultured in Keratinocyte SFM with human recombinant epidermal growth factor (EGF) and bovine pituitary extract (BPE), MDA PCa 2b were cultured in BRFF-HPC1 with 20% FBS, HT-29 was cultured in McCory's with 10% FBS, SW620 and MDA MB 231 were cultured in L-15 with 10% FBS, HMEC was cultured in mammary epithelial cell basal medium with supplements, and BEAS-2B was cultured in BEBM base medium with BEBM supplement kit. Cells were maintained at 37° C. in a 5% CO2 incubator.
The 22Rv1, LNCaP, PC-3, MDA PCa 2b, MCF7, H1299, A549, HT-29, SW620, MDA MB-231, HMEC and BEAS-2B cells were seeded at a density of 3×10^5 cells/well in 6-well plates. RC77 T/E cells were seeded at a density of 5×10^5 cells/well in 6-well plates. The cells were grown for 24 h and then transfected with nonsense/scrambled RNA (NS) and miR-99b-5p mimic (Ambion) using DharmaFECT4 transfection reagent (Dharmacon). After 24 h, fresh media were applied to replace the transfection reagent-containing media, then the cells were incubated for an additional 24 h.
The total proteins were extracted using M-PER extraction reagent with protease and phosphatase inhibitor cocktail (Thermo Fisher Scientific) according to manufacturer's protocol. […] Equal amounts of proteins were used based on the quantification using BCA assay kit (Thermo Fisher Scientific), and the samples were separated by electrophoresis using NuPAGE 4-12% or 8% Bis-Tris gels (Invitrogen). […] The results were analyzed with SuperSignal ECL substrates (Thermo Fisher Scientific) and a ChemiDoc XRS system (Bio-Rad). […]

Substance: miR-99b-5p mimic: miRNA mimic of miR-99b-5p (SEQ ID NO: 2, CACCCGUAGAACCGACCUUGCG), purchased from Ambion (listed as RNA, chemistry not given here; listed as Homo sapiens)
- cell proliferation (BrdU labeling) [1]: reduction
- nuclear mTOR expression (Western blot) ([2]; miR-99b-5p vs NS transfected): significant decrease
- nuclear pmTOR expression (Western blot) ([2]; miR-99b-5p vs NS transfected): significant decrease
- total mTOR (combined cytoplasmic and nuclear mTOR, Western blot) ([2]; miR-99b-5p vs NS transfected): generalized reduction
- cytoplasmic mTOR (Western blot) ([2]; upon miR-99b-5p transfection): slight to no decrease
